Read-outs that look alike come from different tables or passages of the source. Starred links: 1 amine or outer side, 2 acyl side, 3 side chain; linkers in the order of their positions; H or OH if unused. Positions of bridges follow the written chain, without caps; N, C: chain ends. Non-standard residues stand in square brackets, D forms with d. Residues, ends and D or L forms follow the SMILES beside them. *: point of attachment. Bip(4'-NHCO-C6H4-4-CH2COOH) = N[C@@H](Cc1ccc(-c2ccc(NC(=O)c3ccc(CC(=O)O)cc3)cc2)cc1)C(=O)O; Bip(4'-(3-HOOC-benzamido)) = N[C@@H](Cc1ccc(-c2ccc(NC(=O)c3cccc(C(=O)O)c3)cc2)cc1)C(=O)O; Bip(4'-NH) = O=C([C@H](Cc1ccc(-c2ccc(N[*:3])cc2)cc1)N[*:1])[*:2]; Indazole3carbonyl(1-CH2COOH) = O=C(O)Cn1nc(C(=O)*)c2ccccc21; Bip(4'-COOH) = N[C@@H](Cc1ccc(-c2ccc(C(=O)O)cc2)cc1)C(=O)O; Bip(4'-NHAc) = CC(=O)Nc1ccc(-c2ccc(C[C@H](N)C(=O)O)cc2)cc1; dArg(ω-Bn) = N=C(NCCC[C@@H](N)C(=O)O)NCc1ccccc1; Ala(morpholin-4-yl) = N[C@@H](CN1CCOCC1)C(=O)O; Benzoyl(3-OCH2COOH) = O=C(O)COc1cccc(C(=O)*)c1; Bip = N[C@@H](Cc1ccc(-c2ccccc2)cc1)C(=O)O; Val(3-OH) = CC(C)(O)[C@H](N)C(=O)O; Hyp = O=C(O)[C@@H]1C[C@@H](O)CN1; 2Pal = N[C@@H](Cc1ccccn1)C(=O)O; 3Pal = N[C@@H](Cc1cccnc1)C(=O)O; 2Thi = N[C@@H](Cc1cccs1)C(=O)O; Cha = N[C@@H](CC1CCCCC1)C(=O)O; Chg = N[C@H](C(=O)O)C1CCCCC1; Tle = CC(C)(C)[C@H](N)C(=O)O; Aze = O=C(O)[C@@H]1CCN1; Sar = CNCC(=O)O
Molecular target: TNFα (Homo sapiens, UniProt P01375)
Sequence (P01375 77-233 limits assumed): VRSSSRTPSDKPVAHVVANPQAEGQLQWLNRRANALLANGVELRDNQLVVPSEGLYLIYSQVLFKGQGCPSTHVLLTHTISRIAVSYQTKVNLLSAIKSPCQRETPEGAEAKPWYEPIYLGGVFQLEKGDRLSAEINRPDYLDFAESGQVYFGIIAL
Experiment: TNF-Induced HEK-Blue Assay
Format: cell-based
[1] = HEK-Blue-CD40L cells, NF-kB-driven secreted alkaline phosphatase reporter, TNFα 0.5 ng/ml, 18 h, read-out: TNF induced HEK-Blue assay IC50 value

| Structure (SMILES) | IC50 [1] [nM] | IC50 [nM] |
| --- | --- | --- |
| CC(C)C[C@@H]1NC(=O)[C@H](Cc2ccc(O)cc2)NC(=O)[C@H](C(C)C)NC(=O)[C@@H]2CCCN2C(=O)[C@H](C(C)C)NC(=O)[C@@H](CCCNC(=N)N)NC(=O)[C@H](CC(=O)O)NC(=O)[C@@H]2CCCN2C(=O)CN(C)C(=O)[C@H](Cc2ccc(-c3ccc(NC(=O)c4nn(CC(=O)O)c5ccccc45)cc3)cc2)NC(=O)[C@H](Cc2ccc(-c3ccc(C(=O)O)cc3)cc2)NC(=O)[C@H](CC2CCCCC2)NC(=O)CSC[C@@H](C(=O)NCC(N)=O)NC1=O [Example 363] ({CH2CO}-[Cha][Bip(4'-COOH)][Bip(4'-NH)](Indazole3carbonyl(1-CH2COOH))[Sar]PD[dR]VPVYLCG-NH2; thioether N-13) |  | < 50 |
| CC(C)C[C@@H]1NC(=O)[C@H](CCCNC(=N)N)NC(=O)[C@H](C(C)C)NC(=O)[C@@H]2CCCN2C(=O)[C@H](Cc2cccnc2)NC(=O)[C@H](CCCNC(=N)N)NC(=O)[C@H](CC(=O)O)NC(=O)[C@@H]2CCCN2C(=O)CN(C)C(=O)[C@H](Cc2ccc(-c3ccccc3)cc2)NC(=O)[C@H](Cc2ccc(-c3ccccc3)cc2)NC(=O)[C@H](C(C)(C)O)NC(=O)CSC[C@@H](C(=O)NCC(N)=O)NC1=O [Example 60] ({CH2CO}-[Val(3-OH)][Bip][Bip][Sar]PDR[3Pal]PVRLCG-NH2; thioether N-13) | 200 to 2000 |  |
| CC(C)C[C@@H]1NC(=O)[C@H](CCCNC(=N)N)NC(=O)[C@H](C2CCCCC2)NC(=O)[C@@H]2CCCN2C(=O)[C@H](C(C)C)NC(=O)[C@@H](CCCNC(=N)N)NC(=O)[C@H](CC(=O)O)NC(=O)[C@H](Cc2ccccn2)NC(=O)CN(C)C(=O)[C@H](Cc2ccc(-c3ccccc3)cc2)NC(=O)[C@H](Cc2ccc(-c3ccccc3)cc2)NC(=O)[C@H](CN2CCOCC2)NC(=O)CSC[C@@H](C(=O)NCC(N)=O)NC1=O [Example 204] ({CH2CO}-[Ala(morpholin-4-yl)][Bip][Bip][Sar][2Pal]D[dR]VP[Chg]RLCG-NH2; thioether N-13) | 50 to 200 |  |
| CC(C)[C@@H]1NC(=O)[C@H](CCCNC(=N)N)NC(=O)[C@H](C(C)C)NC(=O)[C@@H]2CCCN2C(=O)[C@H](C(C)C)NC(=O)[C@H](CCCNC(=N)N)NC(=O)[C@H](CC(=O)O)NC(=O)[C@@H]2CCCN2C(=O)CN(C)C(=O)[C@H](Cc2ccc(-c3ccc(C(=O)O)cc3)cc2)NC(=O)[C@H](Cc2ccc(-c3ccccc3)cc2)NC(=O)[C@H](CN2CCOCC2)NC(=O)CSC[C@@H](C(=O)NCC(N)=O)NC1=O [Example 90] ({CH2CO}-[Ala(morpholin-4-yl)][Bip][Bip(4'-COOH)][Sar]PDRVPVRVCG-NH2; thioether N-13) | 50 to 200 |  |
| CC(=O)Nc1ccc(-c2ccc(C[C@@H]3NC(=O)[C@H](Cc4ccc(-c5ccccc5)cc4)NC(=O)[C@H](CN4CCOCC4)NC(=O)CSC[C@@H](C(=O)NCC(N)=O)NC(=O)[C@H](CC(C)C)NC(=O)[C@H](Cc4ccc(O)cc4)NC(=O)[C@H](C(C)C)NC(=O)[C@@H]4CCCN4C(=O)[C@H](C(C)C)NC(=O)[C@@H](CCCNC(=N)N)NC(=O)[C@H](CC(=O)O)NC(=O)[C@@H]4CCCN4C(=O)CN(C)C3=O)cc2)cc1 [Example 125] ({CH2CO}-[Ala(morpholin-4-yl)][Bip][Bip(4'-NHAc)][Sar]PD[dR]VPVYLCG-NH2; thioether N-13) | < 50 |  |
| CC(=O)Nc1ccc(-c2ccc(C[C@@H]3NC(=O)[C@H](Cc4ccc(-c5ccc(C(=O)O)cc5)cc4)NC(=O)[C@H](C(C)(C)C)NC(=O)CSC[C@@H](C(=O)NCC(N)=O)NC(=O)[C@H](CC(C)C)NC(=O)[C@H](Cc4cnc[nH]4)NC(=O)[C@H](C(C)C)NC(=O)[C@@H]4CCCN4C(=O)[C@H](C(C)C)NC(=O)[C@@H](CCCNC(=N)N)NC(=O)[C@H](CC(=O)O)NC(=O)[C@H](Cc4ccccc4)NC(=O)CN(C)C3=O)cc2)cc1 [Example 261] ({CH2CO}-[Tle][Bip(4'-COOH)][Bip(4'-NHAc)][Sar]FD[dR]VPVHLCG-NH2; thioether N-13) | < 50 |  |
| CC(C)C[C@@H]1NC(=O)[C@H](Cc2ccccn2)NC(=O)[C@H](C(C)C)NC(=O)[C@@H]2CCCN2C(=O)[C@H](C(C)C)NC(=O)[C@H](CCCNC(=N)N)NC(=O)[C@H](CC(=O)O)NC(=O)[C@@H]2CCCN2C(=O)CN(C)C(=O)[C@H](Cc2ccc(-c3ccccc3)cc2)NC(=O)[C@H](Cc2ccc(-c3ccccc3)cc2)NC(=O)[C@H](Cc2ccccc2)NC(=O)CSC[C@@H](C(=O)NCC(N)=O)NC1=O [Example 34] ({CH2CO}-F[Bip][Bip][Sar]PDRVPV[2Pal]LCG-NH2; thioether N-13) | 200 to 2000 |  |

More lines, main results first:

| IC50 [1] [nM] | Structure (SMILES) | IC50 [nM] |
| --- | --- | --- |
| 50 to 200 | CC[C@H](C)[C@@H]1NC(=O)[C@@H]2CCN2C(=O)[C@H]([C@@H](C)CC)NC(=O)[C@@H](CCCNC(=N)N)NC(=O)[C@H](CC(=O)O)NC(=O)[C@H](Cc2ccc(O)cc2)NC(=O)CN(C)C(=O)[C@H](Cc2ccc(-c3ccc(NC(=O)c4cccc(C(=O)O)c4)cc3)cc2)NC(=O)[C@H](Cc2ccc(-c3ccccc3)cc2)NC(=O)[C@H](C(C)(C)C)NC(=O)CSC[C@@H](C(=O)NCC(N)=O)NC(=O)[C@H](CC(C)C)NC(=O)[C@H](Cc2ccc(O)cc2)NC1=O [Example 377] ({CH2CO}-[Tle][Bip][Bip(4'-(3-HOOC-benzamido))][Sar]YD[dR]I[Aze]IYLCG-NH2; thioether N-13) |  |
| < 50 | CC(C)C[C@@H]1NC(=O)[C@H](Cc2ccc(O)cc2)NC(=O)[C@H](C(C)C)NC(=O)[C@@H]2CCCN2C(=O)[C@H](C(C)C)NC(=O)[C@@H](CCCNC(=N)NCc2ccccc2)NC(=O)[C@H](CC(=O)O)NC(=O)[C@@H]2CCCN2C(=O)CN(C)C(=O)[C@H](Cc2ccc(-c3ccc(NC(=O)c4ccc(CC(=O)O)cc4)cc3)cc2)NC(=O)[C@H](Cc2ccc(-c3ccc(C(=O)O)cc3)cc2)NC(=O)[C@H](CC2CCCCC2)NC(=O)CSC[C@@H](C(=O)NCC(N)=O)NC1=O [Example 582] ({CH2CO}-[Cha][Bip(4'-COOH)][Bip(4'-NHCO-C6H4-4-CH2COOH)][Sar]PD[dArg(ω-Bn)]VPVYLCG-NH2; thioether N-13) |  |
| < 50 | CC[C@H](C)[C@@H]1NC(=O)[C@@H](CCCNC(=N)N)NC(=O)[C@H](CC(=O)O)NC(=O)[C@H](Cc2cnc[nH]2)NC(=O)CN(C)C(=O)[C@H](Cc2ccc(-c3ccc(NC(C)=O)cc3)cc2)NC(=O)[C@H](Cc2ccc(-c3ccc(C(=O)O)cc3)cc2)NC(=O)[C@H](CC2CCCCC2)NC(=O)CSC[C@@H](C(=O)NCC(N)=O)NC(=O)[C@H](CC(C)C)NC(=O)[C@H](Cc2cnc[nH]2)NC(=O)[C@H](C(C)C)NC(=O)[C@@H]2C[C@@H](O)CN2C1=O [Example 277] ({CH2CO}-[Cha][Bip(4'-COOH)][Bip(4'-NHAc)][Sar]HD[dR]I[Hyp]VHLCG-NH2; thioether N-13) |  |
| 50 to 200 | CC(C)C[C@@H]1NC(=O)[C@H](Cc2cccs2)NC(=O)[C@H](C(C)C)NC(=O)[C@@H]2CCCN2C(=O)[C@H](C(C)C)NC(=O)[C@@H](CCCNC(=N)N)NC(=O)[C@H](CC(=O)O)NC(=O)[C@H](Cc2ccccn2)NC(=O)CN(C)C(=O)[C@H](Cc2ccc(-c3ccc(NC(=O)c4cccc(OCC(=O)O)c4)cc3)cc2)NC(=O)[C@H](Cc2ccc(-c3ccc(C(=O)O)cc3)cc2)NC(=O)[C@H](C(C)(C)C)NC(=O)CSC[C@@H](C(=O)NCC(N)=O)NC1=O [Example 615] ({CH2CO}-[Tle][Bip(4'-COOH)][Bip(4'-NH)](Benzoyl(3-OCH2COOH))[Sar][2Pal]D[dR]VPV[2Thi]LCG-NH2; thioether N-13) |  |

Source: patent US20250145665A1, “MACROCYCLIC PEPTIDES USEFUL AS MODULATORS OF TNF ALPHA” (Bristol-Myers Squibb Company, priority 2023, published 2025)
